This is an account of results in PubChem BioAssay AID1966 (Sanford-Burnham Center for Chemical Genomics, 2009).

The target of the experiment is Beta-galactosidase (Escherichia coli) (UniProt Q8VNN2). The experiment can be described thus: inhibitors of purified bacterial beta-gal – biochemical, counter-screen, dose response (AID 1966). The conditions noted are these: purified E. coli beta-galactosidase enzyme activity. For orientation: The purpose of a counterscreen is to sort out artefacts and off-target activity.
Sequence of Beta-galactosidase (Escherichia coli) (Q8VNN2 whole entry, looked up): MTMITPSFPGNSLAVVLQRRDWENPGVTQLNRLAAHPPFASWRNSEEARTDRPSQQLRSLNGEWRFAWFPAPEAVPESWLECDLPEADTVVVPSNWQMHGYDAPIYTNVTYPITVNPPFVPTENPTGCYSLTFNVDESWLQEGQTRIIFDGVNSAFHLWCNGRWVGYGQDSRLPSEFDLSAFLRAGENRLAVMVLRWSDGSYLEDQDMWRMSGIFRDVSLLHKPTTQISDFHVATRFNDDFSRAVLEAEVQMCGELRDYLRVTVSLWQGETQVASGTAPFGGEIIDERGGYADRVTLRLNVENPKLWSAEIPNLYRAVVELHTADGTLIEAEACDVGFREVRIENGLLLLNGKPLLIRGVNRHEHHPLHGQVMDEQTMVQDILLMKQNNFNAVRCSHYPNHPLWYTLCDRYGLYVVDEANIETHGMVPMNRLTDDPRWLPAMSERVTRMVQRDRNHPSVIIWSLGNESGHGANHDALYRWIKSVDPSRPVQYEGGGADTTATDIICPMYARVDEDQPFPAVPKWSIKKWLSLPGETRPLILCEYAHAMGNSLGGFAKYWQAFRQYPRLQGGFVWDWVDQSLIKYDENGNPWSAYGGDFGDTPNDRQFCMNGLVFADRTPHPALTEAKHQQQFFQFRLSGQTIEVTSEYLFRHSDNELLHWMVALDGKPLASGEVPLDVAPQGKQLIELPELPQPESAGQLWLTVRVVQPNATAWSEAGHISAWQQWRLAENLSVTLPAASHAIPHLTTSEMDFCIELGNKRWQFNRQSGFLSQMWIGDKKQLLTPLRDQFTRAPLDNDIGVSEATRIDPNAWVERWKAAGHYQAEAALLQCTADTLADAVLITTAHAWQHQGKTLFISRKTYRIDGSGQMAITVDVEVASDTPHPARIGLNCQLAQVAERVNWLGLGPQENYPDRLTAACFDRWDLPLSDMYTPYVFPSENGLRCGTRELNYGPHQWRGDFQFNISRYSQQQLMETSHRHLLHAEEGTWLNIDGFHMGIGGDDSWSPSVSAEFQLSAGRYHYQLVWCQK

Active and inactive are the calls of the source. The rule behind the calls is not given here.

Turning to `CCNC(=O)C1CCCN1C(=O)C(CCCN=C(N)N)NC(=O)C(CC(C)C)NC(=O)C(Cc1cn(Cc2ccccc2)cn1)NC(=O)C(Cc1ccc(O)cc1)NC(=O)C(CO)NC(=O)C(Cc1c[nH]c2ccccc12)NC(=O)C(Cc1cnc[nH]1)NC(=O)C1CCC(=O)N1` (stereo unspecified), the IC50 (usually the point on the concentration scale where inhibition reaches its midpoint) was > 31.5 µM (inactive).
